In this experiment the target is T1, Human M4 (Homo sapiens, UniProt P08173).
T1 construct: expressed in transfected cells; host or cells: CHO-K1 (ATCC), stably expressing hM4 and Gqi5
T1 sequence (P08173 1-479): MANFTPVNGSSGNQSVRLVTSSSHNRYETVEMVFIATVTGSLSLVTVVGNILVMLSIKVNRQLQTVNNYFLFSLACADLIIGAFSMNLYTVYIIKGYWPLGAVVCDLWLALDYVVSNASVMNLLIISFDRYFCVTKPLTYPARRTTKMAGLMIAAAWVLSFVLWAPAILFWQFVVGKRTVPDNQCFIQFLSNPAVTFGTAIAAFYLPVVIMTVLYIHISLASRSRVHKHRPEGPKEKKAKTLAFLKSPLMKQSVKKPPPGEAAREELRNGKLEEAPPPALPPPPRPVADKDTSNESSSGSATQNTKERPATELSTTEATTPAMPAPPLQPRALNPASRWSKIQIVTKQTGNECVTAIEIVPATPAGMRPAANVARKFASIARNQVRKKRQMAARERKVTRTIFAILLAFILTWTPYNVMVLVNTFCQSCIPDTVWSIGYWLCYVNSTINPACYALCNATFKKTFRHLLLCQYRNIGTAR
The experiment is described as follows: mAChR M4 cell-based functional assay (calcium flux, potentiation of EC20 acetylcholine response) in hM4-Gqi5 CHO-K1 cells. The note with it: for Emax at 30 µM: % ACh maximum at 30 μM, human M4 CHO-K1 cells; for EC50: CHO-K1 cells transfected with human M4 and Gqi5, positive allosteric modulator activity, EC20 acetylcholine. On the procedure:
Human M4 cDNA, along with the chimeric G protein Gqi5, were transfected into Chinese hamster ovary (CHO-K1) cells purchased from the American Type Culture Collection using commercially available Lipofectamine 2000 transfection reagent (Dalby, B. et al., Methods (2004) 33(2), 95-103). hM4-Gqi5 cells were grown in Ham's F-12 medium containing 10% heat-inactivated fetal bovine serum (FBS), 20 mM HEPES, 50 μg/mL G418 sulfate (CAS #108321-42-2), and 500 μg/mL Hygromycin B. rM4-Gqi5 cells were grown in DMEM containing 10% heat-inactivated FBS, 20 mM HEPES, 400 μg/mL G418 sulfate, and 500 μg/mL Hygromycin B.
For high throughput measurement of agonist-evoked increases in intracellular calcium, CHO-K1 cells stably expressing muscarinic receptors were plated in growth medium lacking G418 sulfate and hygromycin at 15,000 cells/20 μL/well in Greiner 384-well black-walled, tissue culture (TC)-treated, clear-bottom plates (VWR). Cells were incubated overnight at 37° C. and 5% CO2. The next day, cells were washed using an ELX 405 (BioTek) with assay buffer; the final volume was then aspirated to 20 μL. Next, 20 μL of a 2.3 μM stock of Fluo-4/acetoxymethyl ester (Invitrogen, Carlsbad, CA), prepared as a 2.3 mM stock in DMSO and mixed in a 1:1 ratio with 10% (w/v) Pluronic F-127 and diluted in assay buffer, was added to the wells and the cell plates were incubated for 50 minutes at 37° C. and 5% CO2. Dye was removed by washing with the ELX 405 and the final volume was aspirated to 20 μL. Compound master plates were formatted in an 11 point concentration-response curve (CRC) format (1:3 dilutions) in 100% DMSO with a starting concentration of 10 mM using a BRAVO liquid handler (Agilent). Test compound CRCs were then transferred to daughter plates (240 nL) using the Echo acoustic plate reformatter (Labcyte, Sunnyvale, CA) and then diluted into assay buffer (40 μL) to a 2× stock using a Thermo Fisher Combi (Thermo Fisher Scientific, Waltham, MA).
Calcium flux was measured using the Functional Drug Screening System (FDSS) 6000 or 7000 (Hamamatsu Corporation, Tokyo, Japan) as an increase in the fluorescent static ratio. Compounds were applied to cells (20 μL, 2×) using the automated system of the FDSS at 2-4 seconds into the protocol and the data were collected at 1 Hz. […] Agonist activity was analyzed as a concentration-dependent increase in calcium mobilization upon compound addition. Positive allosteric modulator activity was analyzed as a concentration-dependent increase in the EC20 acetylcholine response. With the acetylcholine EC20 set as baseline, the test compound EC50 is determined as the concentration that produces an increase above baseline of 50% of the maximum increase in acetylcholine response elicted by the test compound. Antagonist activity was analyzed as a concentration-dependent decrease in the EC80 acetylcholine response. Concentration-response curves were generated using a four-parameter logistical equation in XLFit curve fitting software (IDBS, Bridgewater, NJ) for Excel (Microsoft, Redmond, WA) or Prism (GraphPad Software, Inc., San Diego, CA).
Compounds were synthesized as described above. Activity (EC50 and Emax) was determined in the mAChR M4 cell-based functional assay as described above and the data are shown in Table 5. The compound numbers correspond to the compound numbers used in Examples 1-13 and Tables 1, 2, and 3.
Background: A change in cytosolic calcium serves as a functional read-out for many receptors and channels.

Broadly, the Emax is the greatest response seen or fitted, relative to the assay's reference. What is called EC50 is the concentration that produces a half-maximal response. Regarding `Cc1sc2ncnc(N3CCc4ncc(C(F)(F)F)cc4C3)c2c1C` [Compound 1, 5,6-dimethyl-4-[3-(trifluoromethyl)-7,8-dihydro-5H-1,6-naphthyridin-6-yl]thieno[2,3-d]pyrimidine], the Emax at 30 µM amounted to 85% and the EC50 is 610 nM.
The like results for `Cc1cc2c(N3CCc4ncc(N5CCCn6nccc65)cc4C3)ncnc2s1` [Compound 2, 4-[3-(6,7-dihydro-5H-pyrazolo[1,5-a]pyrimidin-4-yl)-7,8-dihydro-5H-1,6-naphthyridin-6-yl]-6-methyl-thieno[2,3-d]pyrimidine] were, in that order, 106% and 30 nM.
With `Cc1cc2c(N3CCc4ncc(Oc5ccccc5F)cc4C3)ncnc2s1` [Compound 3, 4-[3-(2-fluorophenoxy)-7,8-dihydro-5H-1,6-naphthyridin-6-yl]-6-methyl-thieno[2,3-d]pyrimidine], the Emax at 30 µM amounted to 80% and the EC50 came out at 630 nM.
As to `Cc1csc2c(N3CCc4ncc(-c5cnn(C6CC6)c5)cc4C3)ncnc12` [Compound 4, 4-[3-(1-cyclopropylpyrazol-4-yl)-7,8-dihydro-5H-1,6-naphthyridin-6-yl]-7-methyl-thieno[3,2-d]pyrimidine], the Emax at 30 µM was 43% and the EC50 was determined as 770 nM.
Take `Cc1ncc(-c2cnc3c(c2)CN(c2ncnc4c(C)csc24)CC3)s1` [Compound 5, 7-methyl-4-[3-(2-methylthiazol-5-yl)-7,8-dihydro-5H-1,6-naphthyridin-6-yl]thieno[3,2-d]pyrimidine]: the Emax at 30 µM was found to be 35% and the EC50 was found to be 310 nM.
On to `Cc1ncc(-c2cnc3c(c2)CN(c2ncnc4sccc24)CC3)s1` [Compound 6, 4-[3-(2-methylthiazol-5-yl)-7,8-dihydro-5H-1,6-naphthyridin-6-yl]thieno[2,3-d]pyrimidine], for which the Emax at 30 µM came to 45% and the EC50 is 100 nM.
As for `Cc1nc(N2CCc3ncc(C(F)(F)F)cc3C2)c2c(C)c(C)sc2n1` [Compound 7, 2,5,6-trimethyl-4-[3-(trifluoromethyl)-7,8-dihydro-5H-1,6-naphthyridin-6-yl]thieno[2,3-d]pyrimidine], the Emax at 30 µM stood at 88% and the EC50 was 3280 nM.
On to `Cc1csc2ncnc(N3CCc4ncc(C(F)(F)F)cc4C3)c12` [Compound 8, 5-methyl-4-[3-(trifluoromethyl)-7,8-dihydro-5H-1,6-naphthyridin-6-yl]thieno[2,3-d]pyrimidine], for which the Emax at 30 µM is 78% and the concentration giving a half-maximal response (EC50) came out at 30 nM.
Regarding `Cc1cc2c(N3CCc4ncc(C(F)(F)F)cc4C3)ncnc2s1` [Compound 9, 6-methyl-4-[3-(trifluoromethyl)-7,8-dihydro-5H-1,6-naphthyridin-6-yl]thieno[2,3-d]pyrimidine], the Emax at 30 µM is 76% and the half-maximal effective concentration (EC50) was 30 nM.
With `FC(F)(F)c1cnc2c(c1)CN(c1ncnc3ccsc13)CC2` [Compound 10, 4-[3-(trifluoromethyl)-7,8-dihydro-5H-1,6-naphthyridin-6-yl]thieno[3,2-d]pyrimidine], the Emax at 30 µM came out at 79% and the EC50 was 120 nM.
On to `Cc1csc2c(N3CCc4ncc(C(F)(F)F)cc4C3)ncnc12` [Compound 11, 7-methyl-4-[3-(trifluoromethyl)-7,8-dihydro-5H-1,6-naphthyridin-6-yl]thieno[3,2-d]pyrimidine], for which the Emax at 30 µM turned out to be 63% and the EC50 turned out to be 500 nM.
The corresponding values for `Cc1cc2c(N3CCc4ncc(-c5cn(C)nc5C)cc4C3)ncnc2s1` [Compound 12, 4-[3-(1,3-dimethylpyrazol-4-yl)-7,8-dihydro-5H-1,6-naphthyridin-6-yl]-6-methyl-thieno[2,3-d]pyrimidine] are 74% and 230 nM.
Turning to `Cc1cc2c(N3CCc4ncc(N5CCOc6ncccc65)cc4C3)ncnc2s1` [Compound 13, 1-[6-(6-methylthieno[2,3-d]pyrimidin-4-yl)-7,8-dihydro-5H-1,6-naphthyridin-3-yl]-2,3-dihydropyrido[2,3-b][1,4]oxazine], the Emax at 30 µM was 121% and the EC50 worked out at 70 nM.
As to `Cc1ccc(-c2cnc3c(c2)CN(c2ncnc4sc(C)cc24)CC3)cn1` [Compound 14, 6-methyl-4-[3-(6-methyl-3-pyridyl)-7,8-dihydro-5H-1,6-naphthyridin-6-yl]thieno[2,3-d]pyrimidine], the Emax at 30 µM turned out to be 97% and the half-maximal effective concentration (EC50) came to 190 nM.
`Cc1ccc(-c2cnc3c(c2)CN(c2ncnc4c(C)csc24)CC3)cn1` [Compound 15, 7-methyl-4-[3-(6-methyl-3-pyridyl)-7,8-dihydro-5H-1,6-naphthyridin-6-yl]thieno[3,2-d]pyrimidine]: the Emax at 30 µM came to 45% and the EC50 was found to be 550 nM.
`Cc1csc2ncnc(N3CCc4ncc(N5CCOc6ncccc65)cc4C3)c12` [Compound 16, 1-[6-(5-methylthieno[2,3-d]pyrimidin-4-yl)-7,8-dihydro-5H-1,6-naphthyridin-3-yl]-2,3-dihydropyrido[2,3-b][1,4]oxazine]: the Emax at 30 µM was found to be 91% and the EC50 was found to be 60 nM.
The corresponding values for `Cc1ccc(-c2cnc3c(c2)CN(c2ncnc4scc(C)c24)CC3)cn1` [Compound 17, 5-methyl-4-[3-(6-methyl-3-pyridyl)-7,8-dihydro-5H-1,6-naphthyridin-6-yl]thieno[2,3-d]pyrimidine] are 79% and 180 nM.
`Cc1ncc(-c2cnc3c(c2)CN(c2ncnc4scc(C)c24)CC3)s1` [Compound 18, 5-methyl-4-[3-(2-methylthiazol-5-yl)-7,8-dihydro-5H-1,6-naphthyridin-6-yl]thieno[2,3-d]pyrimidine]: the Emax at 30 µM worked out at 72% and the EC50 was found to be 470 nM.
Consider `Cc1ccc(Oc2cnc3c(c2)CN(c2ncnc4scc(C)c24)CC3)c(F)c1` [Compound 19, 4-[3-(2-fluoro-4-methyl-phenoxy)-7,8-dihydro-5H-1,6-naphthyridin-6-yl]-5-methyl-thieno[2,3-d]pyrimidine], for which the Emax at 30 µM turned out to be 58% and the EC50 turned out to be 1840 nM.
In the case of `Cc1cc2c(N3CCc4ncc(-c5cnn(C6CC6)c5)cc4C3)ncnc2s1` [Compound 20, 4-[3-(1-cyclopropylpyrazol-4-yl)-7,8-dihydro-5H-1,6-naphthyridin-6-yl]-6-methyl-thieno[2,3-d]pyrimidine], the Emax at 30 µM turned out to be 91% and the EC50 came to 470 nM.
Turning to `Cc1cc2c(N3CCc4ncc(-c5cnc(C)s5)cc4C3)ncnc2s1` [Compound 21, 6-methyl-4-[3-(2-methylthiazol-5-yl)-7,8-dihydro-5H-1,6-naphthyridin-6-yl]thieno[2,3-d]pyrimidine], the Emax at 30 µM came out at 88% and the EC50 amounted to 250 nM.
The like results for `Cc1csc2c(N3CCc4ncc(N5CCCn6nccc65)cc4C3)ncnc12` [Compound 22, 4-[3-(6,7-dihydro-5H-pyrazolo[1,5-a]pyrimidin-4-yl)-7,8-dihydro-5H-1,6-naphthyridin-6-yl]-7-methyl-thieno[3,2-d]pyrimidine] were, in that order, 85% and 280 nM.

The record behind these values is patent publication US20250017935A1, “7,8-DIHYDRO-5H-1,6-NAPHTHYRIDINE DERIVATIVES AS POSITIVE ALLOSTERIC MODULATORS OF THE MUSCARINIC ACETYLCHOLINE RECEPTOR M4 FOR TREATING NEUROLOGICAL AND PSYCHIATRIC DISORDERS” (Vanderbilt University, priority 2021, published 2025).
